One assay has as its system rats subjected to tMCAo. Put plainly: Intranasal Pen1-XBIR3 prior to tMCAo in rats; immunohistochemistry counts of neurons and processes in the penumbra. Type of assay: in vivo, rat. The protocol: Brains were analyzed for expression of activated caspase-6, NF-L, MAP-2, and NeuN at 12 hpr and 24 hpr. […] Therefore, caspase-9 inhibition using this delivery technique reduced caspase-6 activity. […] (Coleman, M., Nat Rev Neurosci 6 (11), 889-898 (2005)). […] Unlike axon density, dendrite levels are unaffected at 12 and 24 hpr (FIG. 4D), which can indicate a slower time-course for dendritic degeneration or a different mechanism of degeneration.
Mouse & Rat Stroke Models. Caspase-6 null (C6^−/−) mice (Jackson Laboratories)^48,49 on C57/B16 background were bred with wild-type C57/B16 mice to generate C6^+/− heterozygotes, hets were bred to generate C6^−/− and wild-type littermates for studies. 2-3 month old male C6^−/− and wild-type littermate mice (23-30 g) as well as adult Wistar male rats 250-300 g (Taconic Laboratories) were subjected to transient middle cerebral artery occlusion (tMCAo) as previously published. (Connolly, et al., Neurosurgery 38 (3), 523-531; discussion 532 (1996); Komotar, et al., Nat Protoc 2 (10), 2345-2347 (2007)). Brains were harvested and processed for western blotting or immunohistochemistry as described below. For mouse neurofunctional analysis, a 28 point neurological functional exam was performed as previously described. (Clark, et al., Neurol Res 19 (6), 641-648 (1997)). Additionally, single mice were placed in a fresh cage at each time point (Pre-stroke, 24 hr reperfusion, 7 days reperfusion) short videos (3 min at each time point) were recorded of each mouse's representative spontaneous activity to illustrate motor deficits in the mouse stroke model.
Intranasal Delivery of Pen1-XBIR3. While under isofluorane anesthesia and lying on their backs, Pen1-XBIR3 (36.8 μM) was delivered to rats by administering 6 μl drops to alternating nares every two minutes for 20 minutes (60 μl total delivered). (Thorne, et al., Neuroscience 127 (2), 481-496 (2004)). Intranasal treatment was done prior to induction of stroke. Saline was used as a negative control. Brains were harvested for immunohistochemistry or western blotting.
Immunohistochemistry (IHC), Cell Process Quantification, and Statistical Analysis. Rats and mice were euthanized, perfused with heparin followed by fixation with 4% paraform-aldehyde. Sections were blocked for 1 hr with 10% normal goat serum/1% BSA, incubated with primary antibody overnight at 4° C., washed with PBS-Triton-X100 (0.1%), incubated with the species appropriate Alexa Fluor-conjugated secondary antibody (Invitrogen) for 2 hr at RT. Slides were also stained with Hoechst 33342 for 15 min at RT (1 μg/ml, Invitrogen) or with NeuroTrace fluorescent Nissl stain (1:300, Invitrogen) for 30 min to stain for nuclei. Human samples were additionally treated with Sudan Black (1% in 70% EtOH) for 5 min at RT and washed with 3 changes of PBS (3 min each). For detection of fluorescent staining, sections were imaged with an upright Nikon fluorescent microscope using a SPOT digital camera and with a Perkin-Elmer Spinning Disc Confocal Imaging System. Quantification of neurons and axons was accomplished using the Cell Counter plug-in for ImageJ (NIH). For quantification in the rat brain, 20x magnification images were acquired from the dorsal motor cortex and the […] somatosensory cortex forelimb region; both regions are contained are within the infarct penumbra (FIG. 1A). Single blind counts of processes or neurons were made in both regions of interest and then pooled for each individual animal. Three animals were used per cohort. For mouse brains, 20× magnification images were taken in the S1 somato-sensory cortex forelimb region and similar counts were made as described below. Counts were made for NF-L/MAP-2 positive processes and NeuN positive cell bodies. Comparisons between groups used the student's t test, p-value: 0.05.

Assay [1] relates to hippocampal neuronal cultures. Put plainly: Neuronal survival assay, 4-hydroxynonenal (HNE) mediated death. It is filed as cell-based, rat. The conditions noted are these: HNE 3 μM, Pen1-XBIR3 80 nM, 1 day. The source says:
(Davidson, et al., J Neurosci 24 (45), 10040-10046 (2004)). Upon entry into the cell the disulfide linkage is broken by the reducing environment of the cytoplasm, releasing the peptide cargo and allowing it to act at its target. Functional efficacy of this construct was confirmed using hippocampal neuronal cultures that were subjected to 4-hydroxynonenal (HNE) mediated death, a caspase-9 dependent death. (Rabacchi, et al., Neurobiol Aging 25 (8), 1057-1066 (2004)). […] To ensure that a Pen1-peptide could be delivered to the brain, Pen1 was linked to a FITC-labeled control peptide and delivered to the striatum using convection enhanced delivery (CED). Brains were harvested 24 hr after delivery, sectioned, and imaged. […] Pent-XBIR3 was delivered to the striatum 1 hr prior to tMCAo using ICC. Animals were harvested at 24 hpr and immunostained for caspase-9 and c1-C6. […] Thus, caspase-9 activity was necessary for activation of caspase-6 in neuron soma and processes following a transient ischemic event in rats.
Rat Hippocampal cultures. […]
Neuronal survival assay. […] After 1 day of treatment cells number was quantified as previously described. […] Briefly, the cells were lysed in counting buffer and intact nuclei were counted using a hemocytometer. […]

With “Pen1-XBIR3: BIR3 domain from XIAP, a specific caspase-9 inhibitor, disulfide-linked to Penetratin1 cell transduction peptide (SEQ ID NO: 10)”, the “MAP-2 positive processes (dendrites)” value was 162.0±19.22 with rats subjected to tMCAo (12 hpr, n=3) and 138.3±6.766 in the assay with rats subjected to tMCAo (24 hpr, n=3). The substance further returned an NF-L positive axons in the assay on rats subjected to tMCAo (12 hpr, n=3) of 179.7±14.89. Besides, the NeuN positive cells in the assay with rats subjected to tMCAo (12 hpr, n=3) was 477.3±28.95; in the assay on rats subjected to tMCAo (24 hpr, n=3), 453.7±25.44; with rats subjected to tMCAo (24 hpr, n=3, listed as Pent-XBIR3), “significant protection against neuron loss”. Besides, the “neuronal death / survival” value in assay [1] is “abrogated death”.

The record behind these values is patent US20200164026A1, “Intranasal Delivery of Cell Permeant Therapeutics” (The Trustees of Columbia University in the City of New York, priority 2010, published 2020).
